Assay results from ChEMBL document CHEMBL5120892, “Identification and Characterization of Natural and Semisynthetic Quinones as Aurora Kinase Inhibitors” (J Nat Prod, 2022).
The source made the active and inactive calls. The rule behind the calls is not given here.

How the values were obtained:
MCF7 = assay: Antiproliferative activity against human MCF7 cells measured after 72 hrs by SRB assay; type: functional
MV4-11 = assay: Antiproliferative activity against human MV4-11 cells measured after 72 hrs by SRB assay; type: functional
K562 = assay: Antiproliferative activity against human K562 cells measured after 72 hrs by SRB assay; type: functional
HCC1954 = assay: Antiproliferative activity against human HCC1954 cells measured after 72 hrs by SRB assay; type: functional
BT-549 = assay: Antiproliferative activity against human BT-549 cells measured after 72 hrs by SRB assay; type: functional
MOLM-13 = assay: Antiproliferative activity against human MOLM-13 cells measured after 72 hrs by SRB assay; type: functional
HCT-116 [1] = assay: Antiproliferative activity against human HCT-116 cells measured after 72 hrs by SRB assay; type: functional
CAL-51 = assay: Antiproliferative activity against human CAL-51 cells measured after 72 hrs by SRB assay; type: functional
Aurora kinase A [2] = target: T1, Aurora kinase A (Homo sapiens, UniProt O14965); assay: Inhibition of Aurora A (unknown origin)
T1 sequence (O14965 whole entry): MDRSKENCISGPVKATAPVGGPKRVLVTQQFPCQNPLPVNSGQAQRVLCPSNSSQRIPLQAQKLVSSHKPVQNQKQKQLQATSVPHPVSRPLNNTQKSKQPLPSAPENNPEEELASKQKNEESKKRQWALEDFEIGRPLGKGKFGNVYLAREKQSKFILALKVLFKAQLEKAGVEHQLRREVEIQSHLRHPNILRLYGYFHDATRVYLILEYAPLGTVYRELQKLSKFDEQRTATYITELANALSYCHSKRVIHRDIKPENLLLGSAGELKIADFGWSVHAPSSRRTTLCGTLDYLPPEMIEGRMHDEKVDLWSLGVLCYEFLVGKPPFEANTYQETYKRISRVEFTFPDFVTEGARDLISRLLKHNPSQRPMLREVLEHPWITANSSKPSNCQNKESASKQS

Aurora kinase B [3] = target: T2, Aurora kinase B (Homo sapiens, UniProt Q96GD4); assay: Inhibition of Aurora B (unknown origin)
[4] = target: T3, Aurora kinase A (Homo sapiens) (UniProt O14965); assay: Inhibition of Aurora A (122 to 403 residues) (unknown origin) expressed in Escherichia coli Rosetta 2(DE3) assessed as reduction in TACC3 phosphorylation at Ser 558 residue at 25 uM using TACC3 (519 to 838 residues) as substrate measured after 30 mins by Western blot analysis
T3 sequence (whole entry): T1 sequence (O14965 whole entry)

Homo sapiens [5] = species: Homo sapiens; assay: Selectivity ratio of IC50 for inhibition of Aurora B (unknown origin) to IC50 for inhibition of Aurora A (unknown origin)
HCT-116 [6] = assay: Induction of apoptosis in human HCT-116 cells assessed as increase in cleaved PARP expression at 1.25 to 5 uM measured after 24 hrs by Western blot analysis; type: functional, cell-based; conditions: dose 1.25-5 µM
A549 [7] = assay: Induction of abnormal mitosis in human A549 cells assessed as formation of misaligned chromosome at 3 to 6 uM measured after 24 hrs by DAPI staining based immunofluorescence assay; type: functional, cell-based; conditions: dose 3-6 µM
A549 [8] = assay: Induction of abnormal mitosis in human A549 cells assessed as formation of single spindle pole at 3 to 6 uM measured after 24 hrs by CDK5Rap2 staining based immunofluorescence assay; type: functional, cell-based; conditions: dose 3-6 µM
HCT-116 [9] = assay: Induction of apoptosis in human HCT-116 cells assessed as late apoptotic cells at 5 uM measured after 24 hrs by Annexin V-FITC/propidium iodide staining based flow cytometry (reference value: 0.02%); type: functional
HCT-116 [10] = assay: Induction of apoptosis in human HCT-116 cells assessed as late apoptotic cells at 2.5 uM measured after 24 hrs by Annexin V-FITC/propidium iodide staining based flow cytometry (reference value: 0.02%); type: functional
[11] = target: T3, Aurora kinase A (Homo sapiens); assay: Binding affinity to Aurora A (unknown origin) expressed in Escherichia coli Rosetta 2(DE3) at 1 mM by STD NMR analysis
Aurora kinase A [12] = target: T1, Aurora kinase A; assay: Inhibition of Aurora A (122 to 403 residues) (unknown origin) expressed in Escherichia coli Rosetta 2(DE3) assessed as reduction in TACC3 phosphorylation at Ser 558 residue using TACC3 (519 to 838 residues) as substrate measured after 30 mins by Western blot analysis
A549 [13] = assay: Induction of abnormal mitosis in human A549 cells assessed as increase in abrogated mitotic cells at 3 to 6 uM measured after 24 hrs by DAPI staining based immunofluorescence assay; type: functional, cell-based; conditions: dose 3-6 µM
HCT-116 [14] = assay: Induction of apoptosis in human HCT-116 cells assessed as early apoptotic cells at 5 uM measured after 24 hrs by Annexin V-FITC/propidium iodide staining based flow cytometry (reference value: 2.92%); type: functional
[15] = target: T3, Aurora kinase A (Homo sapiens); assay: Inhibition of Aurora A in human HCT-116 cells using TACC3 as substrate measured after 2 hrs by Western blot analysis; type: cell-based; conditions: dose 1.56-50 µM, DDE = dose-dependent effect
Aurora kinase B [16] = target: T2, Aurora kinase B; assay: Inhibition of Aurora B in human HCT-116 cells using histone H3 as substrate measured after 2 hrs by Western blot analysis; type: cell-based
Homo sapiens [17] = species: Homo sapiens; assay: Selectivity ratio of IC50 for inhibition of Aurora B (unknown origin) to IC50 for inhibition of Aurora A (unknown origin) expressed in Escherichia coli Rosetta 2(DE3)
A549 [18] = assay: Induction of abnormal mitosis in human A549 cells assessed as formation of aberrant spindle assembly at 3 to 6 uM measured after 24 hrs by DAPI staining based immunofluorescence assay; type: functional, cell-based; conditions: dose 3-6 µM
HCT-116 [19] = assay: Induction of apoptosis in human HCT-116 cells assessed as early apoptotic cells at 2.5 uM measured after 24 hrs by Annexin V-FITC/propidium iodide staining based flow cytometry (reference value: 2.92%); type: functional

T2 sequence (Q96GD4 whole entry, the tested form may be a part): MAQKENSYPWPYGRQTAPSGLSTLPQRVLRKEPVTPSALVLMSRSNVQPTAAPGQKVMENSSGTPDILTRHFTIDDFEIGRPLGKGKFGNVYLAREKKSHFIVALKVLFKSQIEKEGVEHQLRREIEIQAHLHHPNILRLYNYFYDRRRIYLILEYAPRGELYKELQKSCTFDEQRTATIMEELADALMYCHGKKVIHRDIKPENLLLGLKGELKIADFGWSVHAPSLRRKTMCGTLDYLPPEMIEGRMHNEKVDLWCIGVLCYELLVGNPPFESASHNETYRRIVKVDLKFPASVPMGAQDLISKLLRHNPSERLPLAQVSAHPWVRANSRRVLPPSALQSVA

Structure (SMILES)	GI50 (MCF7) [µM]	GI50 (MV4-11) [µM]	GI50 (K562) [µM]	GI50 (HCC1954) [µM]	GI50 (BT-549) [µM]	GI50 (MOLM-13) [µM]	GI50 (HCT-116 [1]) [µM]	GI50 (CAL-51) [µM]	IC50 (Aurora kinase A [2]) [µM]	IC50 (Aurora kinase B [3]) [µM]	inhibition [4]	Ratio IC50 (Homo sapiens [5])	also measured
CC1=CC(=O)c2cccc(O)c2C1=O	1.4	26.5	1.3	0.34	2.7	4.1	0.46	2.5	–	–	–	–	–
CC1=CC(=O)c2c(O)cc(C)c(C(=O)C(Cl)Cl)c2C1=O	25.8	0.86	3.7	1.6	8.5	3.7	4.3	1.9	–	–	–	–	–
O=C1C=CC(=O)c2c(O)cccc21 [JUGLONE]	32.6	0.06	> 100	6.44	> 100	21.9	4.2	> 100	0.05	0.62	Active	12.4	–
CC=CCC1=C(O)C(=O)c2ccccc2C1=O	> 100	79.1	> 100	> 100	47	> 100	41.5	54.1	–	–	–	–	–
COC(=O)/C=C(/CC1=C(CCC(=O)CC2(C)OCCO2)C(=O)c2ccccc2C1=O)OC	28.3	43.1	9.7	19.1	24	16.8	21.5	16.3	–	–	–	–	–
O=C1C=CC(=O)c2c(O)ccc(O)c21 [NAPHTHAZALIN]	0.43	0.19	1.7	0.49	0.43	0.28	0.16	0.56	–	0.35	Active	–	Activity (HCT-116 [6]): Active; Activity (A549 [7]): Active; Activity (A549 [8]): Active; Activity (HCT-116 [9]): 21.56%; Activity (HCT-116 [10]): 3.78%; Activity [11]: Active; IC50 (Aurora kinase A [12]): 0.09 µM; Activity (A549 [13]): Active; Activity (HCT-116 [14]): 6.36%; inhibition [15]: Dde; inhibition (Aurora kinase B [16]): Active; Ratio IC50 (Homo sapiens [17]): 3.89; Activity (A549 [18]): Active; Activity (HCT-116 [19]): 6.85%
CC1(C)CCC2=C(O1)c1ccccc1C(=O)C2=O [LAPACHONE]	12.2	70.1	41	31.8	11.4	34.5	12.9	8.3	–	–	–	–	–
COc1ccc2c(c1)C(=O)C=CC2=O	28.9	4.3	2.9	2.2	34	4.1	8.3	2.8	–	–	–	–	–
CC1=C(Br)C(=O)c2ccccc2C1=O	19.1	3.3	3.4	1.4	4.9	< 0.01	3.4	1.5	0.09	0.96	Active	10.7	–
O=C1C=C(Cl)C(=O)c2c(O)cccc21	15.6	0.18	3.2	0.99	9.3	1.7	4.1	12.7	0.15	1.8	Active	12	–
O=C1c2ccccc2C(=O)c2c(O)c(CCl)cc(O)c21	0.59	6.3	2.8	0.61	0.4	3.7	0.22	0.15	0.12	0.41	–	3.42	Activity (HCT-116 [6]): Active; Activity (A549 [7]): Active; Activity (A549 [8]): Active; Activity (HCT-116 [9]): 53.93%; Activity (HCT-116 [10]): 8.31%; Activity [11]: Active; Activity (A549 [13]): Active; Activity (HCT-116 [14]): 17.6%; Activity (A549 [18]): Active; Activity (HCT-116 [19]): 11.27%
